Laboratory results: US20260021055A1, “Asymmetric Piperazine-Based Cationic Lipids” (TRANSLATE BIO, INC., priority 2022, published 2026)

Test system: hEPO protein produced in the serum
Experiment: Delivery of human erythropoietin (hEPO) mRNA by intramuscular administration; hEPO protein in serum by ELISA
Type: in vivo, Mice
Details: for in vivo protein production (hEPO protein) after delivery of hEPO mRNA: lipid nanoparticles comprising the compound, FIG. 1; for effectiveness in delivering hEPO mRNA compared with control cationic lipid: mice, intramuscular, lipid nanoparticles comprising the lipid, FIG. 1 and Table F
Method: For the hEPO animal dosing studies, the lipid nanoparticles (LNPs) are diluted to […] in 10% trehalose. Mice are dosed intramuscularly (IM) with 0.1 μg in 30 μL volume into right gastrocnemius muscle on the leg of the mouse. Blood samples are collected 6 hours and 24 hours post injection to measure the amount of hEPO protein produced in the serum. The hEPO protein amounts are detected using an ELISA assay from commercially available kits. Lipid nanoparticle formulations described in Table D above encapsulating hEPO mRNA were prepared by Process A as described above for intramuscular (IM) administration in accordance with the above procedure.

SMILES	in vivo protein production (hEPO protein) after delivery of hEPO mRNA	effectiveness in delivering hEPO mRNA compared with control cationic lipid
CCCCCCCC/C=C\CCCCCCC(O)CN(CCCCSSCCCCN1CC(C)N(CCOC(=O)CCCN(CC(O)CCCCCCCCCC)CC(O)CCCCCCCCCC)CC1C)CC(O)CCCCCC/C=C\CCCCCCCC (stereo not shown) [Compound C1]	high levels of in vivo protein production	more effective in delivering hEPO mRNA than the control cationic lipid DLin-MC3-DMA
CCCCCCCC/C=C\CCCCCCC(O)CN(CCCCSSCCCN1CC(C)N(CCOC(=O)CCCN(CC(O)CCCCCCCCCC)CC(O)CCCCCCCCCC)CC1C)CC(O)CCCCCC/C=C\CCCCCCCC (stereo not shown) [Compound B1]	high levels of in vivo protein production	more effective in delivering hEPO mRNA than the control cationic lipid DLin-MC3-DMA
